Measured values from US10221177B2 (HYDRA BIOSCIENCES, INC., priority 2014, dated 2019).
Several values for one entry are separate records, joined by “and”; a condition that tells them apart may be missing. Equal values may be shown once.

Legend:
[1] = system: CFA-induced cold hypersensitivity of the hind paw; assay: CFA-induced pain test, cold hypersensitivity (cold plate paw withdrawal latency); assay type: in vivo; details: cold plate 1° C.; for Average PWL Post-Treatment / PWL Change: 1-2 hour pre-treatment; for Average PWL Post-CFA: baseline before dosing
Experimental: Embodiments of the invention may be efficacious in the treatment of inflammatory pain. Compounds of the invention were tested by the CFA-induced pain test method. Compounds were formulated as solutions in water with various solvents and excipients including dimethyl sulfoxide (DMSO), polyethylene glycol (15)-hydroxystearate (Solutol®, Sigma-Aldrich), caprylocaproyl macrogol-8 glyceride (Labrasol®, Sigma-Aldrich), polysorbate-80 (Tween®-80, Sigma-Aldrich), and polyoxyl 35 castor oil (Cremophor® EL, BASF Corp.); or suspensions in methylcellulose as indicated in Table 3 for oral delivery. Briefly, the hind paw was sensitized to cold temperature (allodynic) by administering 0.1 mL of Complete Freund's Adjuvant (CFA) to the right hind paw. Three days later, the time taken for the animal to lift its CFA-injected paw was recorded compared to its un-injected normal left hind paw. […] To avoid tissue damage the maximum cut-off time was 5 minutes. Animals that were allodynic (average PWL to the first three pain behaviors <150 seconds for the CFA-injected hind paw: ˜≥50% difference between the normal and CFA-injected paw) were included in the study and subsequently randomized across treatment groups. The following day, the animals were dosed orally under blinded conditions. Following the 1-2 hour pre-treatment time, the post-dose PWL readings were again taken. The efficacy of the drug treatment was assessed by comparing the PWL in the drug treatment animals to those animals that receive the vehicle. P values, when indicated, indicate significance compared Vehicle.

[2] = system: formalin-induced pain behaviors in the rat; assay: Formalin-induced pain test (formalin model), duration of pain behaviors; assay type: in vivo
Experimental: Exemplary compounds of the invention were tested in the formalin-induced pain test reported by Dubuisson et al., Pain 1977 December; 4(2):161-74 (incorporated herein by reference in its entirety). Briefly, dilute formalin (50 μL of 3% formalin) was injected into the plantar surface of the hind paw of a rat. […] The individual responsible for counting the pain behaviors in a particular study was blinded to the treatment groups.
The initial phase (Phase I: 0-5 min) is thought to have a significant component that is dependent upon direct activation of afferent fibers by formalin and functional TRPA1 (McNamara et al., 2007).
Investigators studied oral administration of compounds of the invention at the doses presented in Table 3 on pain behaviors in the formalin model in the rat. Compounds were formulated as solutions in water with various solvents and excipients including dimethyl sulfoxide (DMSO), polyethylene glycol (15)-hydroxystearate (Solutol®, Sigma-Aldrich), caprylocaproyl macrogol-8 glyceride (Labrasol®, Sigma-Aldrich), polysorbate-80 (Tween®-80, Sigma-Aldrich), and polyoxyl 35 castor oil (Cremophor® EL, BASF Corp.); or suspensions in methylcellulose as indicated in Table 3. Animals were dosed orally with the vehicle, or compounds of the invention one hour prior to intraplantar formalin. […] A decrease over Vehicle indicates a positive result. P values, when indicated, indicate significance compared Vehicle.

human TRPA1 = human TRPA1 (Homo sapiens (Human), UniProt O75762); assay: In vitro inhibition of human TRPA1, whole cell patch configuration; assay type: cell-based; details: current activation 10 μM AITC, tested concentrations 320 pM to 3.2 μM, read-out: hTRPA1 IC50
Method in brief: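 Compound antagonism measured from voltage ramps (±100 or ±80 mV, 400 ms, every 4 s from −40 mV), analysed at −80 and 80 mV, or at constant −60 mV. HEPES-buffered NaCl bath, pH 7.4, EGTA or 2 mM Ca2+; temperature set by perfusion, within ±2° C; no junction-potential correction.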

[3] = 1 mg/kg PO, suspension in 0.5% methylcellulose
[4] = 3 mg/kg PO, suspension in 0.5% methylcellulose
[5] = 10 mg/kg PO, suspension in 0.5% methylcellulose
[6] = 1 mg/kg PO one hour prior to formalin, suspension in 0.5% methylcellulose
[7] = 3 mg/kg PO one hour prior to formalin, suspension in 0.5% methylcellulose
[8] = 10 mg/kg PO one hour prior to formalin, suspension in 0.5% methylcellulose
[9] = 1 mg/kg PO, solution in 4% DMSO, 5% Tween-80, 25% Cremophor EL, and 66% water
[10] = 3 mg/kg PO, solution in 4% DMSO, 5% Tween-80, 25% Cremophor EL, and 66% water
[11] = 10 mg/kg PO, solution in 4% DMSO, 5% Tween-80, 25% Cremophor EL, and 66% water
[12] = 1 mg/kg PO one hour prior to formalin, solution in 4% DMSO, 5% Tween-80, 25% Cremophor EL, 66% water
[13] = 1 mg/kg PO one hour prior to formalin, solution in 8% DMSO and 92% Labrasol
[14] = 3 mg/kg PO one hour prior to formalin, solution in 4% DMSO, 5% Tween-80, 25% Cremophor EL, 66% water
[15] = 3 mg/kg PO one hour prior to formalin, solution in 8% DMSO and 92% Labrasol
[16] = 10 mg/kg PO one hour prior to formalin, solution in 4% DMSO, 5% Tween-80, 25% Cremophor EL, 66% water
[17] = 10 mg/kg PO one hour prior to formalin, solution in 8% DMSO and 92% Labrasol
[18] = 30 mg/kg PO one hour prior to formalin, solution in 8% DMSO and 92% Labrasol
[19] = 0.3 mg/kg PO, solution in 4% DMSO, 5% Tween-80, 20% Cremophor EL, and 71% water
[20] = 1 mg/kg PO, solution in 4% DMSO, 5% Tween-80, 20% Cremophor EL, and 71% water
[21] = 3 mg/kg PO, solution in 4% DMSO, 5% Tween-80, 20% Cremophor EL, and 71% water
[22] = group 0.3 mg/kg PO, solution in 4% DMSO, 5% Tween-80, 20% Cremophor EL, and 71% water
[23] = group 1 mg/kg PO, solution in 4% DMSO, 5% Tween-80, 20% Cremophor EL, and 71% water
[24] = group 3 mg/kg PO, solution in 4% DMSO, 5% Tween-80, 20% Cremophor EL, and 71% water
[25] = 1 mg/kg PO one hour prior to formalin, solution in 4% DMSO, 5% Tween-80, 20% Cremophor EL, 71% water
[26] = 3 mg/kg PO one hour prior to formalin, solution in 4% DMSO, 5% Tween-80, 20% Cremophor EL, 71% water
[27] = 10 mg/kg PO one hour prior to formalin, solution in 4% DMSO, 5% Tween-80, 20% Cremophor EL, 71% water

human TRPA1, sequence (O75762 whole entry, the tested form may be a part): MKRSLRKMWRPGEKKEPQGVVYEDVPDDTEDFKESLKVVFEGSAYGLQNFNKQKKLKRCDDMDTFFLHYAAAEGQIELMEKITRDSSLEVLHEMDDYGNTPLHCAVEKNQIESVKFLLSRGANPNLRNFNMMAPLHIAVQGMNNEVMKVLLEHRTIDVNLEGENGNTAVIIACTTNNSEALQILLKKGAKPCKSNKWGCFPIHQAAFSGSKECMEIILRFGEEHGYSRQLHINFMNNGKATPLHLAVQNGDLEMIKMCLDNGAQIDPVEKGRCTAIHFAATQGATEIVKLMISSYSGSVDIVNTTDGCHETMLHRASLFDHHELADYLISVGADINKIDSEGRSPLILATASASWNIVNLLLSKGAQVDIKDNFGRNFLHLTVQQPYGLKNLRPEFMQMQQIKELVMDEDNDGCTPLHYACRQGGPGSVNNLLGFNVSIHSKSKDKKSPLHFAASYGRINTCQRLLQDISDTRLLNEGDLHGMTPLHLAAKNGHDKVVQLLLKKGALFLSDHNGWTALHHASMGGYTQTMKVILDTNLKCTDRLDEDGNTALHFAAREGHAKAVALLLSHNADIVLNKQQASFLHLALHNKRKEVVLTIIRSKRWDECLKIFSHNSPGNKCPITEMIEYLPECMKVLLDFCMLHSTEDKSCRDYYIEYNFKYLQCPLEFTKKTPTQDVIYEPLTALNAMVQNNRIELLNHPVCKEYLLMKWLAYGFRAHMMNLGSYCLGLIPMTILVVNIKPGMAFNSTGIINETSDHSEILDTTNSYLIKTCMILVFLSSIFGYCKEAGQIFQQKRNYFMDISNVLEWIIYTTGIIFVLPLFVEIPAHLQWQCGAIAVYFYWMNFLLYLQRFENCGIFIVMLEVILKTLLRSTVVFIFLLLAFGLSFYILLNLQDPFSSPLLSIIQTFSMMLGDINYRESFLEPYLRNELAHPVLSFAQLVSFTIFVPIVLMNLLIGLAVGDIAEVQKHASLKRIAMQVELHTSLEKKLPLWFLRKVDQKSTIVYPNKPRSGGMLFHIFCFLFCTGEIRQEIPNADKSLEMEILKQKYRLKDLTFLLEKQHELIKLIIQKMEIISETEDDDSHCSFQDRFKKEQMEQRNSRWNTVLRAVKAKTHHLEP

## CC(=O)Cn1c(=O)c2c(ncn2[C@@H](C)C(=O)Nc2csc(-c3ccc(N4CC5C(C4)C5(F)F)nc3)n2)n(C)c1=O (stereo partly drawn) [Compound 79, (2S)—N-(2-(6-(6,6-difluoro-3-azabicyclo[3.1.0]hexan-3-yl)pyridin-3-yl)thiazol-4-yl)-2-(3-methyl-2,6-dioxo-1-(2-oxopropyl)-2,3-dihydro-1H-purin-7(6H)-yl)propanamide]
[1]; [3]
  Average PWL Post-Treatment: 140.2
  PWL Change: 38.0 s
[1]; [4]
  Average PWL Post-Treatment: 201.8
  PWL Change: 99.6 s
[1]; [5]
  Average PWL Post-Treatment: 231.5
  PWL Change: 129.3 s
[1]; group 1 mg/kg PO, suspension in 0.5% methylcellulose
  Average PWL Post-CFA: 102.2
[1]; group 3 mg/kg PO, suspension in 0.5% methylcellulose
  Average PWL Post-CFA: 102.2
[1]; group 10 mg/kg PO, suspension in 0.5% methylcellulose
  Average PWL Post-CFA: 102.3
[2]; [6]
  Duration (0-2 Minutes) Average: 86.1 s
  Duration (0-5 Minutes) Average: 169.8 s
[2]; [7]
  Duration (0-2 Minutes) Average: 86.5 s
  Duration (0-5 Minutes) Average: 151.1 s
[2]; [8]
  Duration (0-2 Minutes) Average: 77.3 s
  Duration (0-5 Minutes) Average: 142.5 s
Human TRPA1
  IC50: 3 nM

## CC(=O)Cn1c(=O)c2c(ncn2[C@@H](C)C(=O)Nc2csc(-c3cnc(N4CC5CC5C4)nc3)n2)n(C)c1=O (stereo partly drawn) [Compound 153, (2S)—N-(2-(2-(3-azabicyclo[3.1.0]hexan-3-yl)pyrimidin-5-yl)thiazol-4-yl)-2-(3-methyl-2,6-dioxo-1-(2-oxopropyl)-2,3-dihydro-1H-purin-7(6H)-yl)propanamide]
[1]; [9]
  Average PWL Post-Treatment: 178.1
  PWL Change: 85.6 s
[1]; [10]
  Average PWL Post-Treatment: 223.6
  PWL Change: 130.8 s
[1]; [11]
  Average PWL Post-Treatment: 247.1
  PWL Change: 154.3 s
[1]; group 1 mg/kg PO, solution in 4% DMSO, 5% Tween-80, 25% Cremophor EL, and 66% water
  Average PWL Post-CFA: 92.5
[1]; group 3 mg/kg PO, solution in 4% DMSO, 5% Tween-80, 25% Cremophor EL, and 66% water
  Average PWL Post-CFA: 92.8
[1]; group 10 mg/kg PO, solution in 4% DMSO, 5% Tween-80, 25% Cremophor EL, and 66% water
  Average PWL Post-CFA: 92.7
[2]; [12]
  Duration (0-2 Minutes) Average: 71.4 s
  Duration (0-5 Minutes) Average: 164.6 s
[2]; [13]
  Duration (0-2 Minutes) Average: 84.5 s
  Duration (0-5 Minutes) Average: 172.5 s
[2]; [14]
  Duration (0-2 Minutes) Average: 81.5 s
  Duration (0-5 Minutes) Average: 216.9 s
[2]; [15]
  Duration (0-2 Minutes) Average: 86.4 s
  Duration (0-5 Minutes) Average: 198.8 s
[2]; [16]
  Duration (0-2 Minutes) Average: 50.1 s
  Duration (0-5 Minutes) Average: 160.3 s
[2]; [17]
  Duration (0-2 Minutes) Average: 87.9 s
  Duration (0-5 Minutes) Average: 214.6 s
[2]; [18]
  Duration (0-2 Minutes) Average: 31.9 s and 52.8 s
  Duration (0-5 Minutes) Average: 173.1 s and 173.4 s
Human TRPA1
  IC50: 2 nM

## CC(=O)Cn1c(=O)c2c(ncn2[C@@H](C)C(=O)Nc2cccc(-c3cnc(C)c(C(F)(F)F)c3)n2)n(C)c1=O [Compound 97, (S)-2-(3-methyl-2,6-dioxo-1-(2-oxopropyl)-2,3-dihydro-1H-purin-7(6H)-yl)-N-(6′-methyl-5′-(trifluoromethyl)-[2,3′-bipyridin]-6-yl)propanamide]
[1]; [19]
  Average PWL Post-Treatment: 194.7
  PWL Change: 77.3 s
[1]; [20]
  Average PWL Post-Treatment: 262.7
  PWL Change: 149.8 s
[1]; [21]
  Average PWL Post-Treatment: 260.8
  PWL Change: 157.3 s
[1]; [22]
  Average PWL Post-CFA: 117.3
[1]; [23]
  Average PWL Post-CFA: 112.9
[1]; [24]
  Average PWL Post-CFA: 103.5
[2]; [25]
  Duration (0-2 Minutes) Average: 69.3 s
  Duration (0-5 Minutes) Average: 162.4 s
[2]; [26]
  Duration (0-2 Minutes) Average: 78.5 s
  Duration (0-5 Minutes) Average: 175.3 s
[2]; [27]
  Duration (0-2 Minutes) Average: 56.8 s
  Duration (0-5 Minutes) Average: 185.4 s
Human TRPA1
  IC50: 5 nM

## Cc1noc(Cn2c(=O)c3c(ncn3[C@@H](C)C(=O)Nc3cccc(-c4cnc(C(F)(F)F)nc4)n3)n(C)c2=O)n1 [Compound 104, (S)-2-(3-methyl-1-((3-methyl-1,2,4-oxadiazol-5-yl)methyl)-2,6-dioxo-2,3-dihydro-1H-purin-7(6H)-yl)-N-(6-(2-(trifluoromethyl)pyrimidin-5-yl)pyridin-2-yl)propanamide]
[1]; [19]
  Average PWL Post-Treatment: 190.0
  PWL Change: 84.9 s
[1]; [20]
  Average PWL Post-Treatment: 295.1
  PWL Change: 190.9 s
[1]; [21]
  Average PWL Post-Treatment: 281.7
  PWL Change: 176.8 s
[1]; [22]
  Average PWL Post-CFA: 105.1
[1]; [23]
  Average PWL Post-CFA: 104.2
[1]; [24]
  Average PWL Post-CFA: 104.9
[2]; [25]
  Duration (0-2 Minutes) Average: 98.5 s
  Duration (0-5 Minutes) Average: 167.9 s
[2]; [26]
  Duration (0-2 Minutes) Average: 70.9 s
  Duration (0-5 Minutes) Average: 140.0 s
[2]; [27]
  Duration (0-2 Minutes) Average: 56.6 s
  Duration (0-5 Minutes) Average: 128.9 s
Human TRPA1
  IC50: 15 nM
